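Step 1: Grow cells in 96-well plates. Step 2: Expose to compound for 48 hours at 5 concentrations. Step 3: Interpolate endpoints linearly; if unreached, use highest concentration. GI50 = concentration required for 50% inhibition of growth.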 Calls of active or inactive are those of the source. Rule as the data show it: active = GI50 up to about 1.1 µM and inactive = higher.
What was measured:
Assay in all cases: growth of human tumour cells (NCI), 48 h
IGROV-1 = tested on: IGROV-1
A498 = tested on: A498
NCI-H23 = tested on: NCI-H23
M14 = tested on: M14
SNB-75 = tested on: SNB-75
SK-MEL-2 = tested on: SK-MEL-2
NCI-H226 = tested on: NCI-H226
COLO 205 = tested on: COLO 205
ACHN = tested on: ACHN
UACC-257 = tested on: UACC-257
786-0 = tested on: 786-0
RXF 393 = tested on: RXF 393
HL-60 = tested on: HL-60
A549 = tested on: A549
BT-549 = tested on: BT-549
UO-31 = tested on: UO-31
OVCAR-4 = tested on: OVCAR-4
OVCAR-5 = tested on: OVCAR-5
SN12C = tested on: SN12C
HOP-92 = tested on: HOP-92

SMILES | GI50 (IGROV-1) | GI50 (A498) | GI50 (NCI-H23) | GI50 (M14) | GI50 (SNB-75) | GI50 (SK-MEL-2) | GI50 (NCI-H226) | GI50 (COLO 205) | GI50 (ACHN) | GI50 (UACC-257) | GI50 (786-0) | GI50 (RXF 393) | GI50 (HL-60) | GI50 (A549) | GI50 (BT-549) | GI50 (UO-31) | GI50 (OVCAR-4) | GI50 (OVCAR-5) | GI50 (SN12C) | GI50 (HOP-92)
CC(=O)OC(Cc1cc(C=C(C(F)(F)F)C(F)(F)F)cc(C)n1)(C(F)(F)F)C(F)(F)F | 1.1 µM (active) | 1.75 µM (inactive) | 1.45 µM (inactive) | 1.57 µM (inactive) | 2.03 µM (inactive) | 2.1 µM (inactive) | 1.78 µM (inactive) | 0.759 µM (active) | 1.39 µM (inactive) | 1.74 µM (inactive) | 0.839 µM (active) | 0.855 µM (active) | 0.124 µM (active) | 2.88 µM (inactive) | 1.77 µM (inactive) | 1.64 µM (inactive) | 1.72 µM (inactive) | 2.18 µM (inactive) | 1.44 µM (inactive) | –
CCCCCCCCCCCCCCCCCCOC(COP(=O)(O)OCC1OC(n2cc(F)c(=O)[nH]c2=O)CC1O)COP(=O)(O)OCC1OC(n2ccc(N)nc2=O)C(O)C1O (configuration not stated) | 13.6 µM (inactive) | 0.485 µM (active) | 7.98 µM (inactive) | 6.34 µM (inactive) | 22.6 µM (inactive) | > 67 µM (inactive) | > 87.1 µM (inactive) | 20.8 µM (inactive) | 0.474 µM (active) | > 79.3 µM (inactive) | 2.82 µM (inactive) | 16.4 µM (inactive) | 3.66 µM (inactive) | 2.81 µM (inactive) | 18.5 µM (inactive) | 9.64 µM (inactive) | 47.1 µM (inactive) | 66.8 µM (inactive) | 23.9 µM (inactive) | –
O=c1nc(N2CCCCC2)sc2[nH]c3ccccc3c12 | 78 µM (inactive) | > 100 µM (inactive) | 12.2 µM (inactive) | 34.8 µM (inactive) | > 100 µM (inactive) | > 100 µM (inactive) | – | > 100 µM (inactive) | > 100 µM (inactive) | > 100 µM (inactive) | > 100 µM (inactive) | – | > 100 µM (inactive) | > 100 µM (inactive) | > 100 µM (inactive) | 24.8 µM (inactive) | > 100 µM (inactive) | 11.1 µM (inactive) | > 100 µM (inactive) | 55.3 µM (inactive)
CC(C)Oc1ccc2c(c1)OCC1Cc3ccccc3OC21 (configuration not stated) | > 100 µM (inactive) | > 100 µM (inactive) | 89.9 µM (inactive) | > 100 µM (inactive) | – | > 100 µM (inactive) | > 100 µM (inactive) | > 10 µM (inactive) | – | 33.7 µM (inactive) | > 100 µM (inactive) | – | > 100 µM (inactive) | > 100 µM (inactive) | 58.2 µM (inactive) | > 100 µM (inactive) | – | > 100 µM (inactive) | > 100 µM (inactive) | > 100 µM (inactive)
CSc1cnn(CCC#N)c(=O)n1 | > 100 µM (inactive) | 74 µM (inactive) | > 100 µM (inactive) | > 100 µM (inactive) | 84.9 µM (inactive) | – | > 100 µM (inactive) | > 100 µM (inactive) | > 100 µM (inactive) | 62.5 µM (inactive) | > 100 µM (inactive) | > 100 µM (inactive) | 33.2 µM (inactive) | > 100 µM (inactive) | > 100 µM (inactive) | > 100 µM (inactive) | – | > 100 µM (inactive) | > 100 µM (inactive) | –
CCCC[S+]([O-])CCC(N)P(=O)(O)O (configuration not stated) | > 100 µM (inactive) | – | > 100 µM (inactive) | > 100 µM (inactive) | > 100 µM (inactive) | > 100 µM (inactive) | > 100 µM (inactive) | > 100 µM (inactive) | > 100 µM (inactive) | > 100 µM (inactive) | > 100 µM (inactive) | – | > 100 µM (inactive) | > 100 µM (inactive) | > 100 µM (inactive) | > 100 µM (inactive) | > 100 µM (inactive) | > 100 µM (inactive) | > 100 µM (inactive) | > 100 µM (inactive)

— ChEMBL document CHEMBL1201862, “PubChem BioAssay data set” (2004)
